Measurements as given in patent US12404345B2, “Humanized antibodies against iRHOM2” (SCIRHOM GMBH, priority 2021, dated 2025).

Tested on: PMA-induced release of endogenous HB-EGF from human PBMCs from healthy donors
Experiment: ELISA-based HB-EGF release assay, PMA-induced, PBMCs from healthy donors
Assay type: cell-based
Conditions: PBMC, Batimastat 10 μM, PMA 25 ng/ml, 24 hours
Protocol: In the following study, ELISA-based HB-EGF release assays were performed to analyze the inhibitory effects of the antibodies of the invention on PMA-induced release of endogenous HB-EGF from primary human material obtained from healthy donors using peripheral blood mononuclear cells (PBMCs).
In brief, on day 1, Nunc black MaxiSorp® 96-well plates (Thermo Fisher Scientific, USA) were coated overnight with 100 μl per well of mouse anti-human HB-EGF capture antibody (provided as part of the DuoSet ELISA kit) at 2 μg/ml TBS at 4° C. […]
After 4 times washing with 350 μl TBS-T (Carl Roth, Germany) per well on a 96-head plate washer (Tecan Group, Switzerland) and careful removal of all buffer traces after the fourth cycle, 100 μl streptavidin-AP (R&D Systems, USA) diluted 1:10,000 in TBS were added to each well and, again protected from direct light, plates were incubated at room temperature for 30 minutes. […] Using an infinite M1000 (Tecan Group, Switzerland) microplate reader, the fluorescence of each well was collected at an excitation wavelength of 435 nm and an emission wavelength of 555 nm.

## CNC(=O)[C@H](Cc1ccccc1)NC(=O)[C@H](CC(C)C)[C@H](CSc1cccs1)C(=O)NO [Batimastat]
  inhibition at 10 µM: 100%
